Data set [1] has as its target T1, Q58-htn 1–171 amino terminal fragment (GST-Q58-Htn cleaved by thrombin) (Homo sapiens, UniProt P42858, INS38QQQQQQQQQQQQQQQQQQQQQQQQQQQQQQQQQQQQQ).
T1 construct: the amino terminal fragment 1–171 of mutant huntingtin; GST (N, cleaved yes); made in house; host or cells: E. coli BL21 (pGEX-2TK vector)
In words: in vitro aggregation of amino-terminal mutant huntingtin fragment (filter retardation dot blot). The data set is classed as biochemical. As for the experimental part:
In our primary screen (Figure 1A), GST-Q58-Htn (20 μg/ml) was mixed with thrombin (0.5 unit/μg GST-Q58-Htn) and immediately dispensed into a 96-well PCR plate containing compounds diluted to a final concentration of 100 μM. Incubation was continued for 24 hours at room temperature to allow aggregate formation. The aggregation was stopped by 2% SDS/10 mM 2-mercaptoethanol followed by boiling for 5 minutes. The mixture was filtered through a cellulose acetate membrane by using a 96-well ELIFA dot blot apparatus. The aggregates retained on the membrane were detected and quantified by immunoblotting and subsequent image analysis. Congo Red, a known huntingtin aggregation inhibitor, was used as the positive control.
A recombinant pGEX-2TK expression vector with cDNA fragment encoding amino terminal 171 amino acids of human huntingtin with a polyglutamine tract of 58 was used to prepare the GST-Q58-htn fusion protein. The GST-Q58-htn was overexpressed in BL21 cells and purified by affinity chromatography over glutathione-sepharose 4B beads (Amersham Pharmacia Biotech). The purified proteins were stored at concentration of 2.0 mg/ml at -80°C.
For primary screening of the chemical library, 1 μl of 4.0 mM small compound stock, diluted from the original plates, was placed in wells of 96-well plates. The fusion protein, GST-Q58-Htn was mixed with thrombin (0.5 unit/1 μg protein) at a concentration of 20 μg/ml in a buffer of 50 mM Tris-HCl, pH 8.0, 100 mM NaCl, 2.5 mM CaCl2, 1.0 mM EDTA. The mixture was immediately distributed into the 96-well plates containing diluted compounds at 40 μl/well and mixed well. The final concentration of the small compounds was 100 μM. After 24 hours incubation at room temperature, the reaction was stopped by adding 10 μl of 10% SDS/50 mM 2-mercaptoethanol to each well followed by boiling in a PCR machine for 5 minutes. The mixture from each well was filtered through a cellulose acetate membrane ((0.2 μm, GE Osmonics labstore, Minnetonka MN) by using a 96-well ELIFA (Pierce Biotech). The aggregates retained on the membrane were detected by a specific anti-huntingtin antibody, HP1 (diluted 1:1000), followed by incubation with peroxidase conjugated anti-rabbit antibody (diluted 1:10,000, Sigma). Signals from SDS insoluble aggregates were scanned and quantified by using ImageMaster Totalab image analysis software (Amersham Pharmacia Biotech). In the secondary screening, all steps were the same except the final concentration of compound in each well was reduced to 10 μM and the GST-Q58-Htn/thrombin mixture was preincubated for 45-minutes at room temperature and clarified by centrifugation at 28,000 × g for 30 minutes before being added to the test wells. For IC50 determinations, the in vitro aggregation assay and signal quantification were performed as in the second screening but varying the final concentration of input drug. The data for each inhibitor were obtained from at least two independent experiments in which every sample was analyzed in triplicate with Prism 3.0 software (Graphpad Software, Inc., San Diego, CA).

Data set [2] concerns ST111/111 striatal cells (Hdh^Q111/Q111, full-length mutant huntingtin). Briefly: striatal cell line assay: huntingtin localization phenotype (AP229 immunostaining, confocal). Format: cell-based, mouse. The following applies: for Percentage of ST111/111 cells showing cytoplasmic/nuclear huntingtin localization comparable to wild-type ST7/7 cells: 30 min at 33°C, mean ± SD of 5–10 fields. The text has this: To test the hypothesis that compounds, which inhibit the aggregation-promoting property of amino-terminal mutant huntingtin will also rescue effects of full-length mutant huntingtin, we tested the top six inhibitors in a striatal cell-based assay. Mutant Hdh^Q111/Q111 and wild-type Hdh^Q7/Q7 striatal cell lines, […], which have been prepared by transformation with a tsSV40 vector, can be propagated in culture and used for cytological and biochemical comparisons. These cells express full-length mutant or wild-type huntingtin, respectively, with no evidence of truncated amino-terminal fragments, no formation of polyglutamine aggregates and no cell death-producing toxicity. However, like the striatal neurons of Hdh^Q111/Q111 knock-in mice, the ST111/111 cells show nuclear staining of huntingtin when tested with an amino-terminal huntingtin antibody that is sensitive to the conformation of the full-length protein (Figure 5A). By contrast, ST7/7 cells expressing wild type huntingtin show both nuclear and cytoplasmic immunostaining with the same huntingtin antibody (Figure 5A).
Conditionally immortalized wild-type Hdh^Q7/Q7 striatal neuronal progenitor cells (ST7/7) expressing endogenous normal huntingtin, and homozygous Hdh^Q111/Q111 striatal neuronal progenitor cells (ST111/111), expressing endogenous mutant huntingtin with 111-glutamines, have been described previously. The striatal cell lines were grown at 33°C in Dulbecco's modified Eagle's medium (DMEM) supplemented with 10 % fetal bovine serum (FBS), 1% nonessential aminoacids, 2 mM L-glutamine and 400 μg/ml G418 (Geneticin (GIBCO-BRL, Life Technologies, Gaithersburg, MD).
(§1) In the immunofluorescence and confocal analysis experiment, wild-type ST7/7 and homozygous mutant ST111/111 cells, grown to confluence on glass coverslips, were treated with 6 different drugs at four different concentrations (0.5, 5, 10 or 50 μM) for 30 min at 33°C. After the treatment the drugs were removed and the cells washed twice in PBS. The cells were then fixed by incubation in 4% formaldehyde for 15 min, permeabilized by 0.1% Triton X-100 for 5 min and incubated for 30 min with blocking solution (1% bovine albumin in PBS). Coverslips were then incubated in primary antibody (AP229 1:500 dilution) for 2 h at room temperature and washed three times in PBS before a further 1 h in blocking solution containing the secondary antibody (goat anti-rabbit Cy3, Jackson ImmunoResearch, West Grove, PA. USA). After three washes in PBS coverslips were mounted onto glass slides with Vectashield (Burlingame, CA. USA) and the images were analyzed with a laser confocal microscope (Bio-Rad, Hercules, CA. USA) using 20 × objective. Cell death was quantified by scoring the percentage of cells with apoptotic nuclear morphology, i.e. condensed or fragmented nuclei, under the confocal microscope. In each case five to ten randomly selected fields were counted, comprising at least 200 cells, and each experiment was repeated 3 times.

The next data set concerns ST111/111 striatal cells. The data set is classed as cell-based. The conditions noted are these: 30 min at 33°C. On the procedure: as §1, with “After” for “In the immunofluorescence and confocal analysis experiment, wild-type ST7/7 and homozygous mutant ST111/111 cells, grown to confluence on glass coverslips, were treated with 6 different drugs at four different concentrations (0.5, 5, 10 or 50 μM) for 30 min at 33°C. After”

For data set [3], the system named is PC12 cells expressing huntingtin exon 1 encoding 103 glutamines. Further details: method as in PMID 15262266. The conditions noted are these: cited from earlier work.
The subject of data set [4] is HEK 293T cells expressing androgen receptor with 112 glutamines. The following applies: cited from earlier work.

Where “and” joins values, the source holds several entries; their conditions need not be identical. Equal values may be shown once. Entries after “also recorded” stand apart in the source; their conditions may differ. Read-outs that look alike come from different tables or passages of the source.

T1 sequence (P42858 with tags, fused parts or gaps with the stated changes limits assumed): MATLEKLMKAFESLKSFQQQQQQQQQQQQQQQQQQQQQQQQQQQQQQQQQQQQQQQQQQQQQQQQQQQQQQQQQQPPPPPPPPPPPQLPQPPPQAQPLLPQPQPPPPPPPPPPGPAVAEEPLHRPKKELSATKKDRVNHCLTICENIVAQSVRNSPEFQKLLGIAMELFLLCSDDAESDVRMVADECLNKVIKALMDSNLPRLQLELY

In the case of `CC1=C(O)C(=O)C=C2C1=CC=C1[C@@]2(C)CC[C@@]2(C)[C@@H]3C[C@](C)(C(=O)O)CC[C@]3(C)CC[C@]12C` [Celastrol], the IC50 (in general, the concentration needed to halve the response being measured) in data set [1] was < 6 µM and < 15 µM and 3.55 µM. Besides, the residual aggregate formed entry in data set [1] (at the maximum concentration of the dose response (0.01 μM to 500 μM)) was “approximately 20%”. Also, the “Percentage of ST111/111 cells showing cytoplasmic/nuclear huntingtin localization comparable to wild-type ST7/7 cells” value in data set [2] (0.5 μM) came to 8.7 ± 8.7%; in data set [2] (5 μM), 69.2 ± 3.8%; in data set [2] (10 μM) it was 78.1 ± 3.5%. For the same molecule, in data set [2] (0.5–50 μM tested), the “reversal of the mutant huntingtin localization phenotype (in words)” value is reported as “reversed the mutant phenotype in a dose-dependent manner; also recorded: effective”. Besides, the “percentage of dead cells” value with ST111/111 striatal cells (5 μM) was determined as 1%; with ST111/111 striatal cells (10 μM) it was 4%. The “protection against polyglutamine toxicity” value in data set [3] was “partially protective”. The “effect on caspase 3 activation” value in data set [4] is on record as “blocked caspase 3 activation”. The “toxicity in the HEK 293T assay” value in data set [4] is reported as “showed toxicity”.

The record behind these values is article PMC548150, “Reversal of a full-length mutant huntingtin neuronal cell phenotype by chemical inhibitors of polyglutamine-mediated aggregation” (BMC Neuroscience, 2005).
